In patent US20260297060A1, “COMPOUNDS FOR THE DEGRADATION OF MUTANT BRAF” (C4 THERAPEUTICS, INC., priority 2023, published 2026):

Assays:
[1] = Example 7 pharmacokinetics assay for PKPD study (plasma, tumor, liver); type: in vivo, BALB/c nude mice; conditions: mouse, po, 100 mg/kg, p.o., single dose
Experimental: For the PK and PD study, agents were administered to BALB/c nude mice bearing A375 human melanoma xenografts tumors. Dabrafenib, Compound 141, Compound 118, Compound 156, and Compound 180 were dosed p.o. once on day 1. Known BRAF inhibitor Dabrafenib was used as a positive control. Dabrafenib was dosed at 100 mg/kg. Compound 141, Compound 118, Compound 156, and Compound 180 were dosed at 10 mg/kg.
(§1) The plasma samples were collected at predetermined time points for PK analysis. The mice were euthanized at predetermined time points post the treatment. The blood samples were collected into the 1.5 mL Eppendorf tubes containing 15 μL of 0.5 M EDTA-K2. And then the anticoagulant blood samples were centrifuged at 2,500 g at 4° C. for 15 minutes. The plasma samples were separated into 2 aliquots. The 1st was used for PK analysis, and the 2nd served as backup. The samples were stored at −80° C. before bioanalysis.
(§2) The tumor samples were collected at predetermined time points for PK and WB analysis. The tumor was dissected out and split into 3 parts. The 1st part was used for PK analysis, the 2nd part was used for WB analysis and the last one served as backup for study. The samples were transferred into pre-labeled tubes and quickly froze in liquid nitrogen within 2 minutes after dissection. The samples were stored at −80° C. before bioanalysis.
(§3) Liver samples were collected at predetermined time points for PK analysis. The left lobe of the liver was dissected out and split into 2 parts. The 1st part was used for PK analysis and the 2nd part served as the backup for the study. The samples were transferred into pre-labeled tubes and quickly froze in liquid nitrogen within 2 minutes after dissection. The samples were stored at −80° C. before bioanalysis.
The harvested plasma and liver samples were processed for pharmacokinetics analysis by LC-MS/MS with a concentration range of 0.500-1000 ng/mL for Dabrafenib, Compound 118 and Compound 180 in plasma, 0.100~200 ng/ml for Dabrafenib in Liver and tumor homogenate, 50.0~50,000 ng/mL for Compound 141 in plasma and Liver homogenate, 1.00-1000 ng/ml for Compound 141 in tumor homogenate, 2.00~2000 ng/mL for Compound 118 and Compound 180 in Liver and 0.200~200 ng/ml in tumor homogenate, 1.00~2000 ng/mL for Compound 156 in plasma, 0.500-1000 ng/ml in liver and 0.500-1,000 ng/ml in tumor homogenate.

[2] = Example 9 pharmacokinetics assay for the PK and PD study Part I, II and III (plasma, tumor, liver); type: in vivo, BALB/c nude mice; conditions: mouse, po, 100 mg/kg, p.o., single dose, ± SEM
Experimental: For the PK and PD study Part I, agents were administered to BALB/c nude mice bearing A375 human melanoma xenografts tumors. Dabrafenib, Compound 218 and Compound 157 were dosed via p.o. once on day 1. Dabrafenib was dosed at 100 mg/kg. Compound 218 and Compound 157 were dosed at 10 mg/kg.
For the PK and PD study Part II, agents were administered to BALB/c nude mice bearing A375 human melanoma xenografts tumors. Compound 133, Compound 144 and Compound 198 were dosed at 10 mg/kg via p.o. once on day 1.
For the PK and PD study Part III, agent was administered to BALB/c nude mice bearing A375 human melanoma xenografts tumors. Compound 204 were dosed at 10 mg/kg via p.o. once on day 1.
as §1, §2, §3
The harvested plasma, tumor and liver samples were processed for pharmacokinetics analysis by LC-MS/MS with a concentration range of 5.00-10,000 ng/mL for Compound 218, Compound 157 and Compound 133 in plasma, 0.500-1,000 ng/ml for Compound 218 in liver and tumor homogenate, 0.200-400 ng/mL for Compound 157, Dabrafenib and Compound 133 in liver and tumor homogenate, 0.500-1000 ng/mL for Dabrafenib and Compound 204 in plasma, 0.200-200 ng/mL for Compound 204 in liver and tumor homogenate, 20.0-20,000 ng/mL for Compound 144 and Compound 198 in plasma, 1.00-1,000 ng/mL for Compound 144 and Compound 198 in liver and tumor homogenate.

[3] = liver, read-out: Concentration in Liver (mean ± SEM)
[4] = plasma, read-out: Concentration in Plasma (mean ± SEM)
[5] = tumor, read-out: Concentration in Tumor (mean ± SEM)
[6] = liver, read-out: Mean Concentration in Liver
[7] = plasma, read-out: Mean Concentration in Plasma
[8] = tumor, read-out: Mean Concentration in Tumor

Work on CC(C)(C)c1nc(-c2cccc(NS(=O)(=O)c3c(F)cccc3F)c2F)c(-c2ccnc(N)n2)s1 [Dabrafenib, dabrafenib, reference compound] yielded a concentration at 6 h [1, 3] of 2450 ± 737 ng/g, a concentration at 12 h [1, 3] of 1110 ± 453 ng/g and a concentration at 1 h [1, 4] of 7370 ± 865 ng/mL. For the same molecule, the concentration at 6 h [1, 4] was 1140 ± 390 ng/mL, the concentration at 12 h [1, 4] was 336 ± 137 ng/mL and the concentration at 24 h [1, 4] was 3.88 ± 2.43 ng/mL. It also gave a concentration at 1 h [1, 5] of 9520 ± 2050 ng/g, a concentration at 6 h [1, 5] of 702 ± 341 ng/g and a concentration at 12 h [1, 5] of 242 ± 96 ng/g. For the same molecule, the concentration at 24 h [1, 5] was 5.53 ± 0.951 ng/g, the concentration at 6 h [2, 6] was 1010 ± 111 ng/g and the concentration at 12 h [2, 6] was 277 ± 125 ng/g. It also gave a concentration at 1 h [2, 7] of 5920 ± 2380 ng/mL, a concentration at 6 h [2, 7] of 259 ± 45.4 ng/mL and a concentration at 12 h [2, 7] of 88.7 ± 42.7 ng/mL. It also gave a concentration at 24 h [2, 7] of 1.09 ± 0.467 ng/mL, a concentration at 1 h [2, 8] of 4920 ± 1490 ng/g and a concentration at 6 h [2, 8] of 237 ± 4.91 ng/g. The concentration at 12 h [2, 8] was 54 ± 13.5 ng/g and the concentration at 24 h [2, 8] was 1.87 ± 0.9 ng/g.
